# Literature values in patent US20180369129A1, “MICROBIOME-COMPATIBLE COSMETICS” (AOBIOME LLC, priority 2015, published 2018).
# Key:
# NOS [1] = conditions: rat pancreatic islets; through the induction of iNOS
# NOS [2] = conditions: reduction in basal NO levels
smiles,measurement,setting,value
COC(=O)[C@@H](N)CCCNC(=N)N[N+](=O)[O-] [L-NAME],total NO production,NOS [1],increases total NO production
same,effect of chronic inhibition of NOS on heart and kidneys,NOS [2],generalized fibrosis of the heart and kidneys
